Experimental findings from patent US7858610B2, “Preventive and/or remedy for lower urinary tract diseases containing EP4 agonist” (Ono Pharmaceutical Co., Ltd., priority 2004, dated 2010) are described below.

This experiment relates to model of cyclophosphamide-induced cystitis in rats. The experiment in a line: Cystometry in the model of cyclophosphamide-induced cystitis in rats. Format: in vivo, rat. The conditions noted are these: for decrease of the bladder compliance induced by cyclophosphamide: bladder capacity divided by voiding pressure. How it is done: Female Wistar rats (around 9 weeks old) were anesthetized with sodium pentobarbital (40 mg/kg, i.p.). After median incision of the hypogastrium, the top of bladder was incised. A catheter for use in cystometry was filled with physiological saline and then was inserted through the top hole into bladder. The other end of the catheter was fixed subcutaneously in the dorsal part. 0.1 mL Vicillin S500 (Meiji Seika Kaisha, Ltd.; 100 mg titers/mL distilled water/rat) was injected into the buttock muscle. Then, the rats were fed for 6 days or more, and subsequently subjected to the following treatment.
The model of cyclophosphamide-induced cystitis was prepared by a single dose intraperitoneal administration of cyclophosphamide (Sigma; 150 mg/kg). Distilled water is administered intraperitoneally for the control group.
The test compound of each dose was administrated orally 30 minutes before the treatment of cyclophosphamide, and 4, 20, 30 and 45 hours after the treatment of cyclophosphamide. The solvent group (hereinafter, it may be referred to as vehicle.) was administrated distilled water which is the solvent of the test compound. The following cystometry was carried out 48 hours after the treatment of cyclophosphamide.
The rats anesthetized with diethyl ether were kept in ballman cage. The tip of the indwelling catheter for use in measurement of voiding pressure was connected through a three-way valve. Another end of the three-way valve was connected to a pressure transducer, while the other end was connected to a syringe for intravesical injection which was mounted on an infusion pump. A signal of voiding pressure was recorded using an amp recorder of strain pressure
After awaking from anesthesia, saline was injected into the bladder of the rats at a rate of 2.85 mL/h. After the pattern of the micturition reflex was stable, the residual urine was removed. Afterwards, saline was injected again into the bladder at a rate of 2.85 mL/h, and the voiding pressure and the urination interval were measured. The bladder capacity was calculated from the urination interval. The bladder compliance was calculated by dividing the bladder capacity by the voiding pressure.

Where [1] appears, read: 1000 μg/kg orally, cyclophosphamide-induced cystitis, female Wistar rats.

As to `O=C(O)CCCSCCN1C(=O)CC[C@@H]1/C=C/[C@@H](O)Cc1ccc(F)cc1` [compound 1, 4-[(2-{(2R)-2-[(1E,3S)-4-(4-fluorophenyl)-3-hydroxybut-1-enyl]-5-oxopyrrolidin-1-yl}ethyl)sulfanyl]butanoic acid], under “300 μg/kg orally, 30 min before and 4, 20, 30 and 45 h after cyclophosphamide (150 mg/kg i.p.), cystometry 48 h after, FIG. 2”, the “decrease of the bladder compliance induced by cyclophosphamide” value was “improved”. The “decrease of the bladder capacity induced by cyclophosphamide” value (300 μg/kg orally, 30 min before and 4, 20, 30 and 45 h after cyclophosphamide (150 mg/kg i.p.), cystometry 48 h after, female Wistar rats, FIG. 1) is given as “improved”. Moreover, for the setting “oral administration, regardless of the presence of the cyclophosphamide treatment, FIG. 3”, the voiding pressure entry is reported as “decreased”.

As for “methyl 4-{[2-((1R,2R,3R)-3-hydroxy-2-{(1E,3S)-3-hydroxy-4-[3-(methoxymethyl)phenyl]but-1-enyl}-5-oxocyclopenty)ethyl]sulfanyl}butanoate α-cyclodextrin clathrate [compound 2]”, under setting [1], the “decrease of the bladder capacity induced by cyclophosphamide” value is listed as “improved” and the “decrease of the bladder compliance induced by cyclophosphamide” value is listed as “improved”.
